Test results: article PMC5433425 (PeerJ, 2017)
Where two headings read alike, the source gives them in different places. Peptide text beside a SMILES is read from it. * marks the point of attachment. βNA = c1ccc2cc(N*)ccc2c1

How the values were obtained:
E. coli AG100 [1] = assay: Membrane potential assay (BacLight, DiOC2(3)); settings: 80 µM
E. coli AG100A = settings: EtBr […] + inhibitor 20 µM
E. coli AG100 [2] = assay: EtBr accumulation by real-time fluorometry; settings: EtBr 1 µg/ml + inhibitor 80 µM
E. coli AG100 [3] = assay: EtBr efflux by real-time fluorometry; settings: for EtBr fluorescence (Channel Cycling A.530/585hp): 80 µM
Method: Control tubes with only cells and cells with and without 0.4% glucose were included. The fluorescence was measured in a Rotor-Gene 3000 and the data was acquired every 30 s for 30 min at 37 °C. The efflux activity was quantified by comparing the fluorescence data obtained under conditions that promote efflux (presence of glucose and absence of efflux inhibitor) with the data from the control in which the bacteria are under conditions of no efflux (presence of an inhibitor and no energy source).

Compound NC(N)=NCCC[C@H](NC(=O)[C@@H](N)Cc1ccccc1)C(=O)Nc1ccc2ccccc2c1 [PAβN] (H-Phe-Arg-βNA) has a membrane depolarization (E. coli AG100 [1]) of 14%, an EtBr fluorescence (E. coli AG100A; cycle 1) of 2.806 and an EtBr fluorescence (E. coli AG100A; cycle 2) of 3.199. It also gave an EtBr fluorescence (E. coli AG100A; cycle 3) of 3.493, an EtBr fluorescence (E. coli AG100A; cycle 4) of 3.706 and an EtBr fluorescence (E. coli AG100A; cycle 5) of 3.997. For the same compound, the EtBr fluorescence (E. coli AG100A; cycle 6) was 4.263, the EtBr fluorescence (E. coli AG100A; cycle 7) was 4.462 and the EtBr fluorescence (E. coli AG100A; cycle 8) was 4.698. For the same compound, the EtBr fluorescence (E. coli AG100A; cycle 9) was 5.01, the EtBr fluorescence (E. coli AG100A; cycle 10) was 5.162 and the EtBr fluorescence (E. coli AG100A; cycle 11) was 5.32. It also gave an EtBr fluorescence (E. coli AG100A; cycle 12) of 5.607, an EtBr fluorescence (E. coli AG100A; cycle 13) of 5.848 and an EtBr fluorescence (E. coli AG100A; cycle 14) of 6.013. The EtBr fluorescence (E. coli AG100A; cycle 15) was 6.228, the EtBr fluorescence (E. coli AG100A; cycle 16) was 6.479 and the EtBr fluorescence (E. coli AG100A; cycle 17) was 6.607. The EtBr fluorescence (E. coli AG100A; cycle 18) was 6.927, the EtBr fluorescence (E. coli AG100A; cycle 19) was 6.923 and the EtBr fluorescence (E. coli AG100A; cycle 20) was 7.2698. It also gave an EtBr fluorescence (E. coli AG100A; cycle 21) of 7.508, an EtBr fluorescence (E. coli AG100A; cycle 22) of 7.627 and an EtBr fluorescence (E. coli AG100A; cycle 23) of 7.913. It also gave an EtBr fluorescence (E. coli AG100A; cycle 24) of 7.996, an EtBr fluorescence (E. coli AG100A; cycle 25) of 8.302 and an EtBr fluorescence (E. coli AG100A; cycle 26) of 8.33. It also gave an EtBr fluorescence (E. coli AG100A; cycle 27) of 8.55, an EtBr fluorescence (E. coli AG100A; cycle 28) of 8.862 and an EtBr fluorescence (E. coli AG100A; cycle 29) of 8.894. For the same compound, the EtBr fluorescence (E. coli AG100A; cycle 30) was 9.1148, the EtBr fluorescence (E. coli AG100 [2]; cycle 1) was 5.077 and the EtBr fluorescence (E. coli AG100 [2]; cycle 2) was 5.498. It also gave an EtBr fluorescence (E. coli AG100 [2]; cycle 3) of 5.692, an EtBr fluorescence (E. coli AG100 [2]; cycle 4) of 6.095 and an EtBr fluorescence (E. coli AG100 [2]; cycle 5) of 6.2405. The EtBr fluorescence (E. coli AG100 [2]; cycle 6) was 6.476, the EtBr fluorescence (E. coli AG100 [2]; cycle 7) was 6.738 and the EtBr fluorescence (E. coli AG100 [2]; cycle 8) was 6.948. For the same compound, the EtBr fluorescence (E. coli AG100 [2]; cycle 9) was 7.121, the EtBr fluorescence (E. coli AG100 [2]; cycle 10) was 7.401 and the EtBr fluorescence (E. coli AG100 [2]; cycle 11) was 7.525. The EtBr fluorescence (E. coli AG100 [2]; cycle 12) was 7.725, the EtBr fluorescence (E. coli AG100 [2]; cycle 13) was 8.024 and the EtBr fluorescence (E. coli AG100 [2]; cycle 14) was 8.041. For the same compound, the EtBr fluorescence (E. coli AG100 [2]; cycle 15) was 8.277, the EtBr fluorescence (E. coli AG100 [2]; cycle 16) was 8.537 and the EtBr fluorescence (E. coli AG100 [2]; cycle 17) was 8.7426. The EtBr fluorescence (E. coli AG100 [2]; cycle 18) was 8.8367, the EtBr fluorescence (E. coli AG100 [2]; cycle 19) was 8.945 and the EtBr fluorescence (E. coli AG100 [2]; cycle 20) was 9.137. It also gave an EtBr fluorescence (E. coli AG100 [2]; cycle 21) of 9.31, an EtBr fluorescence (E. coli AG100 [2]; cycle 22) of 9.534 and an EtBr fluorescence (E. coli AG100 [2]; cycle 23) of 9.8. The EtBr fluorescence (E. coli AG100 [2]; cycle 24) was 9.927, the EtBr fluorescence (E. coli AG100 [2]; cycle 25) was 10.0486 and the EtBr fluorescence (E. coli AG100 [2]; cycle 26) was 10.1364. It also gave an EtBr fluorescence (E. coli AG100 [2]; cycle 27) of 10.3331, an EtBr fluorescence (E. coli AG100 [2]; cycle 28) of 10.5844 and an EtBr fluorescence (E. coli AG100 [2]; cycle 29) of 10.7732. For the same compound, the EtBr fluorescence (E. coli AG100 [2]; cycle 30) was 11.0863, the “inhibition of EtBr efflux” value (E. coli AG100 [3]; AG100, AG100A and AG100tet (Fig. 2), 80 μM (20 μM for AG100A), glucose, 37 °C) was “to a lesser extent” and the “EtBr fluorescence (Channel Cycling A.530/585hp)” value (E. coli AG100 [3]; cycle 1, + glucose) was 2.175. The “EtBr fluorescence (Channel Cycling A.530/585hp)” value (E. coli AG100 [3]; cycle 1, without glucose) was 1.796, the “EtBr fluorescence (Channel Cycling A.530/585hp)” value (E. coli AG100 [3]; cycle 2, + glucose) was 1.889 and the “EtBr fluorescence (Channel Cycling A.530/585hp)” value (E. coli AG100 [3]; cycle 2, without glucose) was 1.72. For the same compound, the “EtBr fluorescence (Channel Cycling A.530/585hp)” value (E. coli AG100 [3]; cycle 3, + glucose) was 1.756, the “EtBr fluorescence (Channel Cycling A.530/585hp)” value (E. coli AG100 [3]; cycle 3, without glucose) was 1.635 and the “EtBr fluorescence (Channel Cycling A.530/585hp)” value (E. coli AG100 [3]; cycle 4, without glucose) was 1.556. For the same compound, the “EtBr fluorescence (Channel Cycling A.530/585hp)” value (E. coli AG100 [3]; cycle 5, without glucose) was 1.502, the “EtBr fluorescence (Channel Cycling A.530/585hp)” value (E. coli AG100 [3]; cycle 6, without glucose) was 1.4519 and the “EtBr fluorescence (Channel Cycling A.530/585hp)” value (E. coli AG100 [3]; cycle 7, without glucose) was 1.472. For the same compound, the “EtBr fluorescence (Channel Cycling A.530/585hp)” value (E. coli AG100 [3]; cycle 8, without glucose) was 1.378, the “EtBr fluorescence (Channel Cycling A.530/585hp)” value (E. coli AG100 [3]; cycle 9, + glucose) was 1.339 and the “EtBr fluorescence (Channel Cycling A.530/585hp)” value (E. coli AG100 [3]; cycle 9, without glucose) was 1.359. The “EtBr fluorescence (Channel Cycling A.530/585hp)” value (E. coli AG100 [3]; cycle 10, + glucose) was 1.264, the “EtBr fluorescence (Channel Cycling A.530/585hp)” value (E. coli AG100 [3]; cycle 10, without glucose) was 1.368 and the “EtBr fluorescence (Channel Cycling A.530/585hp)” value (E. coli AG100 [3]; cycle 11, + glucose) was 1.2447. The “EtBr fluorescence (Channel Cycling A.530/585hp)” value (E. coli AG100 [3]; cycle 11, without glucose) was 1.355, the “EtBr fluorescence (Channel Cycling A.530/585hp)” value (E. coli AG100 [3]; cycle 12, + glucose) was 1.251 and the “EtBr fluorescence (Channel Cycling A.530/585hp)” value (E. coli AG100 [3]; cycle 12, without glucose) was 1.312. For the same compound, the “EtBr fluorescence (Channel Cycling A.530/585hp)” value (E. coli AG100 [3]; cycle 13, + glucose) was 1.259, the “EtBr fluorescence (Channel Cycling A.530/585hp)” value (E. coli AG100 [3]; cycle 13, without glucose) was 1.3469 and the “EtBr fluorescence (Channel Cycling A.530/585hp)” value (E. coli AG100 [3]; cycle 14, + glucose) was 1.222. The “EtBr fluorescence (Channel Cycling A.530/585hp)” value (E. coli AG100 [3]; cycle 14, without glucose) was 1.257, the “EtBr fluorescence (Channel Cycling A.530/585hp)” value (E. coli AG100 [3]; cycle 15, + glucose) was 1.22 and the “EtBr fluorescence (Channel Cycling A.530/585hp)” value (E. coli AG100 [3]; cycle 15, without glucose) was 1.235. The “EtBr fluorescence (Channel Cycling A.530/585hp)” value (E. coli AG100 [3]; cycle 16, + glucose) was 1.167, the “EtBr fluorescence (Channel Cycling A.530/585hp)” value (E. coli AG100 [3]; cycle 16, without glucose) was 1.232 and the “EtBr fluorescence (Channel Cycling A.530/585hp)” value (E. coli AG100 [3]; cycle 17, + glucose) was 1.194. For the same compound, the “EtBr fluorescence (Channel Cycling A.530/585hp)” value (E. coli AG100 [3]; cycle 17, without glucose) was 1.242.
